The values that follow come from patent US5631146A, “DNA aptamers and catalysts that bind adenosine or adenosine-5'-phosphates and methods for isolation thereof” (The General Hospital Corporation, priority 1995, dated 1997).

Experiment [1] relates to adenosine/ATP-binding single-stranded DNA aptamer (minimal ATP aptamer DH25.42, SEQ ID NO:46). Nature of the experiment: ATP analog elution of bound aptamer from ATP-agarose column. To be noted: 3 column volumes of 1.5 mM analog. The procedure:
FIG. 9A-C are graphs of exemplary elution profiles with analogs of ATP. DNA was loaded onto an ATP-agarose affinity column and washed with 10 column volumes of wash buffer. Bound DNA was then eluted with 3 column volumes of wash buffer containing 1.5 mM analog, then washed with 2 more column volumes of wash buffer; remaining DNA was then eluted in 3 column volumes of wash buffer containing 1.5 mM ATP. Data point at column volume 19 is that remaining on the column after all washes. Elution profiles with 9A. adenosine, 9B. 3-methyl adenine, and 9C. purine riboside.
FIG. 10 is a schematic diagram showing the specifity of the adenosine/ATP aptamer, as determined by analog elution experiments. ++, 85-100% of DNA eluted in 3 column volumes of 1.5 mM ligand; +, 70-84% of DNA eluted in 3 column volumes of 1.5 mM ligand; +/-, 6%-69% of DNA eluted in 3 column volumes of 1.5 mM ligand; -, <5% of DNA eluted in 3 column volumes of 1.5 mM ligand. The regions most important for binding are highlighted by the shaded boxes. […]
10-500 ng (1.2 pmol-60 pmol) of affinity purified DNA was loaded onto a 1/4 ml bed volume ATP-agarose column pre-equilibrated with column buffer. […] Each fraction was then analyzed by Cerenkov counting. […]

The target in experiment [2] is adenosine/ATP-binding single-stranded DNA aptamer (minimal ATP aptamer DH25.42, SEQ ID NO:46). The experiment is described as follows: Kd for adenosine by analytical ultrafiltration. Particulars: room temperature, column buffer (300 mM NaCl, 5 mM MgCl2, 20 mM Tris pH 7.6), 5.49 nM [3H]adenosine, average of two estimates, read-out: Kd for adenosine in solution. The procedure: Although quantitative binding data from column elution experiments is imprecise, an estimate of adenosine affinity in solution was obtained by ultrafiltration experiments (Jenison et al., Science 263:1425-1429, (1994)).
The Kd for adenosine was measured by analytical ultrafiltration (Jenison et al., Science 263:1425-1429, (1994)). In this technique bound and unbound ligand partition across a membrane in a ultra filtration device. DNA (0.06 μM-30 μM) was incubated for 5 min. at room temperature in 200 μl of column buffer containing 5.49 nM [2,8,5'^3H] adenosine. The reaction mixture was loaded onto an Microcon 10 microconcentrator (Amicon) and spun at 14000 RPM in an Eppendorf 5415 centrifuge for 4 min., resulting in 100 μl of ultrafiltrate. This method could not be used with ATP because only 30% of ATP passed through the filter in 50% of the volume. Even with adenosine, only 40-45% passed through in 50% of the volume. The Kd was estimated from the concentration of DNA calculated to decrease the amount of adenosine passing through the filter by 50%. During the course of the experiment the DNA concentration increases by a factor of two since the DNA is retained above the filter; therefore, using the initial DNA concentration would give an artificially low Kd, and using the final DNA concentration would give an artificially high Kd. The Kd reported is the average of these two estimates. […]

Turning to `Nc1ncnc2c1ncn2[C@H]1O[C@H](CO)[C@@H](O)[C@H]1O` [9-α-ribofuranosyladenine], the “elution of bound aptamer from the ATP-agarose column by analog” value in experiment [1] was “did not elute bound aptamer”.

Turning to `Nc1ncnc2c1ncn2[C@@H]1O[C@H](CO)[C@@H](O)[C@H]1O` [adenosine], the Kd (commonly the free concentration of one partner at which half of the binding sites on the other are occupied at equilibrium, for simple one-to-one binding) in experiment [2] is 6 ± 3 µM.
